Data reported in patent publication US6504005B1, “Long-acting drugs and pharmaceutical compositions comprising them” (Yeda Research and Development Co. Ltd., priority 1996, dated 2003).
Like-named read-outs stand apart in the source and are kept apart here. Each block holds one compound with its values, some of them ahead of it.

Tests used:
normal rats = assay: Single intraperitoneal administration to normal rats, blood glucose levels; format: in vivo; details: single i.p. injection, 3 mg/rat
[1] = background statement; cited from earlier work
[2] = Solubility and appearance in aqueous buffer (pH 7.4)
chymotrypsin and trypsin = assay: Proteolysis by a mixture of chymotrypsin and trypsin (analytical HPLC); details: pH 7.4, 37° C., chymotrypsin and trypsin 0.5% w/w each
STZ-diabetic rats = assay: Single subcutaneous administration to STZ-diabetic rats (blood glucose, daily weight gain); details: STZ rats, single s.c. 1 mg, followed seven days
[3] = molecular target: insulin receptor tyrosine kinase (Rattus norvegicus, UniProt P15127); assay: Insulin receptor tyrosine kinase activity, [poly(Glu4Tyr)] phosphorylating assay (cell-free)
Staphylococcus aureus = details: for Antimicrobial potency (%): relative to cephalexin control; for IC50: read-out: Concentration inhibiting 50% of bacterial growth (μM) (IC50)
Protocol: At the indicated time points, aliquots were withdrawn and analyzed for their potency to arrest growth of Staphylococcus aureus. Bacterial growth was then evaluated by increased turbidity measured spectroscopically at 700 nm.

[4] = tested on: experimental animal models; details: cited from earlier work

insulin receptor tyrosine kinase, sequence (P15127 27-759 limits assumed): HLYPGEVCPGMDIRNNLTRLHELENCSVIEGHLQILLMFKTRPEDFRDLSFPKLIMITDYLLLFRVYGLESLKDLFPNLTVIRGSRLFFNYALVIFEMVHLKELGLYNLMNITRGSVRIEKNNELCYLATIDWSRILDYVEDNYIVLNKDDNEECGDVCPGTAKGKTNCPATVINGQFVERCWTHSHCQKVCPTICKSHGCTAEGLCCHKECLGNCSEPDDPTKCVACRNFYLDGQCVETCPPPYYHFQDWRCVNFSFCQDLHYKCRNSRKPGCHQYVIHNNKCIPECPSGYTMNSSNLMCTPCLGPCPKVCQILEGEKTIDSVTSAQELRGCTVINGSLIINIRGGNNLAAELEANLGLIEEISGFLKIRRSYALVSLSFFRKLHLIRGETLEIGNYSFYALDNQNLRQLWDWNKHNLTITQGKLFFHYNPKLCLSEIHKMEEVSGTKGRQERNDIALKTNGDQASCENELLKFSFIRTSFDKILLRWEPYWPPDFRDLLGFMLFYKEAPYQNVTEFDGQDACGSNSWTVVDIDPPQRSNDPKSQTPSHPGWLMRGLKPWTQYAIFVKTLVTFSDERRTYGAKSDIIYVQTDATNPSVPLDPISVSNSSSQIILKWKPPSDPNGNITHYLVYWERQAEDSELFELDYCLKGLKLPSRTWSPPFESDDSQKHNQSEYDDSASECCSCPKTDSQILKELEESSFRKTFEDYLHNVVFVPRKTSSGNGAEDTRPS
insulin receptor tyrosine kinase, sequence (P15127 764-1383 partner limits assumed): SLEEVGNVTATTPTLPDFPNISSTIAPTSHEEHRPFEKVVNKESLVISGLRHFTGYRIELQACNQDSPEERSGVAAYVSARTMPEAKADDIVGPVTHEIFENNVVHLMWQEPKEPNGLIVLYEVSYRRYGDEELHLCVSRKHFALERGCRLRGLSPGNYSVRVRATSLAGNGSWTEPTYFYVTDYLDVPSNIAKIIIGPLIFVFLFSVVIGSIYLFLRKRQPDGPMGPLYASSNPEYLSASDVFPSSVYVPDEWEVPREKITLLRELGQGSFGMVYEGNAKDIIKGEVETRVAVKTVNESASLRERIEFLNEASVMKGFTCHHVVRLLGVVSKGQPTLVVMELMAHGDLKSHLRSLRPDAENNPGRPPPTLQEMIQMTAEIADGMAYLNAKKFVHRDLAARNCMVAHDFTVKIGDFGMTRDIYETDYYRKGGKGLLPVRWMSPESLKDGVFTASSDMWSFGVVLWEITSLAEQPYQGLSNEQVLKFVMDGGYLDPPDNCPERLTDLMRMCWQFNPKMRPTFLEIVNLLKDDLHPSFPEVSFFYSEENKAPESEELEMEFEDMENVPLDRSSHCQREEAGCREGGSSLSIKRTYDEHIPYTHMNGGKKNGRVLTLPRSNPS

Compound: Native insulin: Human insulin, native hormone; parent drug and reference
- Period of hypoglycemia / reduced blood glucose (normal rats): about 12 hours
- Recovery from hypoglycemia, t½ (normal rats): 480 min
- Half-life in plasma [1]: 5 to 6 min
- Appearance in aqueous buffer (pH 7.4) [2]: clear
- Solubility in aqueous buffer (pH 7.4, mg/ml) [2]: ˜4 or higher mg/ml
- Proteolysis t½ (chymotrypsin and trypsin): 30 min
- Daily weight gain (STZ-diabetic rats): 0.57±0.08 g/rat/day
- Biological potency following incubation (2 days, 37° C., pH 8.5) ([3]; after 2 days, 37° C., pH 8.5): 100
- Biological potency (%) ([3]; of native insulin potency, before incubation, [poly(Glu4Tyr)] phosphorylating assay): 100%
- Concentration for half maximal effect ([3]; receptor tyrosine kinase assay): 20 ± 3 ng/mL

- Stability upon incubation (Staphylococcus aureus; pH 7.4, 37° C.): significantly more stable
- IC50 (Staphylococcus aureus; after 1 day at pH 7.4, 37° C.): 15 µM
- IC50 (Staphylococcus aureus; after 3 days at pH 7.4, 37° C.): 9 µM
- IC50 (Staphylococcus aureus; after 6 days at pH 7.4, 37° C.): 4.5 µM
- IC50 (Staphylococcus aureus; no incubation): 23 µM
Compound: CC1=C(C(=O)O)N2C(=O)[C@@H](NC(=O)[C@H](NC(=O)OCC3c4ccccc4-c4ccccc43)c3ccccc3)[C@H]2SC1 [Fmoc-cephalexin, N-Fmoc-cephalexin]
- Antimicrobial potency (%) (Staphylococcus aureus; after 1 day at pH 7.4, 37° C.): 10%
- Antimicrobial potency (%) (Staphylococcus aureus; after 3 days at pH 7.4, 37° C.): 59%
- Antimicrobial potency (%) (Staphylococcus aureus; after 6 days at pH 7.4, 37° C.): 100%
- Antimicrobial potency (%) (Staphylococcus aureus; after 6 days at pH 7.4, 37° C., listed as N-Fmoc-cephalexin): about 50%
- Antimicrobial potency (%) (Staphylococcus aureus; no incubation): ~6%
- Stability to hydrolysis by penicillinase (penicillinase): more stable to hydrolysis by penicillinase than the parent compound

Compound: CC(C)C[C@H](NC(=O)OCC1c2ccccc2-c2ccccc21)C(=O)O [Fmoc-leucine]
- Index of toxicity [4]: low index of toxicity
